Data published in patent publication US9873883B2, “Glyphosate resistant plants and associated methods” (Dow AgroSciences LLC, priority 2012, dated 2018).

Experiments:
[1] = test system: Arabidopsis transformed with TraP5 v2::dgt-14 (pDAB105525); assay: Postemergence glyphosate tolerance, visual injury; format: in vivo, Arabidopsis thaliana; conditions: 2 weeks after application
[2] = test system: dgt-14 soybean plants; assay: Glyphosate tolerance of dgt-14 soybean; format: in vivo, Glycine max; conditions: sprayed
Experimental: Terminal leaflets of selected plantlets are treated topically (leaf paint technique) with a herbicide to screen for putative transformants. The screened plantlets are transferred to the greenhouse, allowed to acclimate and then leaf-painted with a herbicide to reconfirm tolerance. These putative transformed T0 plants are sampled and molecular analyses is used to confirm the presence of the selectable marker and the dgt-14 transgene. Several events are identified as containing the transgenes. These T0 plants are advanced for further analysis and allowed to self fertilize in the greenhouse to give rise to T1 seed. Soybean plants containing the dgt-14 transgene are obtained. The dgt-14 soybean plants are sprayed with varying concentrations of glyphosate and shown to provide tolerance to glyphosate at concentrations up to 3360 g ae/ha.

[3] = test system: T4 Arabidopsis plants containing dgt-14 spiked into wildtype; assay: dgt-14 as a selectable marker with glyphosate selection; format: in vivo, Arabidopsis thaliana; conditions: applied 7 and 11 DAP, scored 17 DAP
Experimental: The use of dgt-14 as a selectable marker for glyphosate selection agent is tested with the Arabidopsis transformed plants described above. Approximately 50 T4 generation Arabidopsis seed (homozygous for dgt-14) are spiked into approximately 5,000 wildtype (sensitive to glyphosate) seed. The seeds are germinated and plantlets are sprayed with a selecting dose of glyphosate. Several treatments of glyphosate are compared; each tray of plants receives either one or two application timings of glyphosate in one of the following treatment schemes: 7 DAP (days after planting), 11 DAP, or 7 followed by 11 DAP. Since all plants also contain a glufosinate resistance gene in the same transformation vector, dgt-14 containing plants selected with glyphosate can be directly compared to DSM-2 or pat containing control plants selected with glufosinate.
Glyphosate treatments are applied with a DeVilbiss spray tip as previously described. Transgenic plants containing dgt-14 are identified as “resistant” or “sensitive” 17 DAP. […] Sensitive and resistant plants are counted and the number of glyphosate tolerant plants is found to correlate with the original number of transgenic seed containing the dgt-14 transgene which are planted.

[4] = test system: Arabidopsis transformed with TraP12 v2::dgt-14 (pDAB105528); assay: Postemergence glyphosate tolerance, visual injury; format: in vivo, Arabidopsis thaliana; conditions: for Visual % injury (Ave): 2 weeks after application
Text: (§1) Transgenic T1 Arabidopsis plants containing the dgt-14 transgene were sprayed with differing rates of glyphosate. A distribution of varying concentrations of glyphosate rates, including elevated rates, were applied in this study to determine the relative levels of resistance (105, 420, 1,680 or 3,360 g ae/ha). The typical 1× field usage rate of glyphosate is 1,120 g ae/ha. The T1 Arabidopsis plants that were used in this study were variable in copy number for the dgt-14 transgene. The low copy dgt-14 T1 Arabidopsis plants were identified using the molecular confirmation assays described above, and self-pollinated and used to produce T2 plants.
(§2) The Arabidopsis T1 transformants were first selected from the background of untransformed seed using a glufosinate selection scheme. Three flats or 30,000 seed were analyzed for each T1 construct. The T1 plants selected above were molecularly characterized and the plants were subsequently transplanted to individual pots and sprayed with various rates of commercial glyphosate as previously described. The dose response of these plants is presented in terms of % visual injury 2 weeks after treatment (WAT). […] An arithmetic mean and standard deviation is presented for each construct used for Arabidopsis transformation. The range in individual response is also indicated in the last column for each rate and transformation. Wildtype, non-transformed Arabidopsis (c.v. Columbia) served as a glyphosate sensitive control.
(§3) Selected T1 Arabidopsis plants which were identified to contain low-copy numbers of transgene insertions (1-3 copies) were self-fertilized to produce a second generation for additional assessment of glyphosate tolerance. […] In the T2 generation hemizygous and homozygous plants were available for testing for each event and therefore were included for each rate of glyphosate tested. Hemizygous plants contain two different alleles at a locus as compared to homozygous plants which contain the same two alleles at a locus. The copy number and ploidy levels of the T2 plants were confirmed using the molecular analysis protocols previously described. Likewise, glyphosate was applied using the methods and rates as previously described. The dose response of the plants is presented in terms of % visual injury 2 weeks after treatment (WAT). […] An arithmetic mean and standard deviation are presented for each construct used for Arabidopsis transformation. The range in individual response is also indicated in the last column for each rate and transformation. Wildtype, non-transformed Arabidopsis (cv. Columbia) served as a glyphosate sensitive control. In addition, plants comprising a glyphosate herbicide resistance gene, dgt-1 (as described in U.S. patent Ser. No. 12/558,351, incorporated herein by reference in its entirety) were included as a positive control.
(§4) Randomly selected T2 Arabidopsis plants which were identified to contain low-copy numbers of transgene insertions (1-3 copies) were self-fertilized to produce a third generation for additional assessment of glyphosate tolerance. Arabidopsis seed from the third generation (T3) were planted and evaluated for glyphosate tolerance using the same protocols as previously described. […] These Events were assayed via LC-MS-MS to confirm that the plants expressed the DGT-14 protein. […] Exemplary resistant T3 Events comprised dgt-14 linked with TraP8 v2 (pDAB105526), TraP9 v2 (pDAB105527), TraP12 v2 (pDAB105528) and TraP13 v2 (pDAB105529).

[5] = test system: Arabidopsis with dgt-1 (pDAB3759), T2 segregating population; assay: Postemergence glyphosate tolerance, visual injury; format: in vivo, Arabidopsis thaliana; conditions: 2 weeks after application
Text: as §1, §2, §3, §4

O=C(O)CNCP(=O)(O)O [glyphosate, N-(phosphonomethyl)glycine]
Visual % injury (Ave) ([1]; T2, 840 g ae/ha): 90.0%
Visual % injury (Ave) ([1]; T3, 840 g ae/ha): 97.5%
tolerance to glyphosate at concentrations up to [2]: up to 3360 g ae/ha
effective selection for transgenic plants [3]: 26.25-1680 g ae/ha
Visual % injury (Ave) ([4]; T1, 105 g ae/ha): 6.0%
Visual % injury (Ave) ([4]; T1, 420 g ae/ha): 11.0%
Visual % injury (Ave) ([4]; T1, 1680 g ae/ha): 20.4%
Visual % injury (Ave) ([4]; T1, 3360 g ae/ha): 19.0%
Visual % injury (Ave) ([4]; T2, 420 g ae/ha): 1.8%
Visual % injury (Ave) ([4]; T2, 1680 g ae/ha): 2.0%
Visual % injury (Ave) ([4]; T2, 3360 g ae/ha): 3.8%
injury range ([4]; T2, all concentrations of glyphosate tested): less than 20%
Visual % injury (Ave) ([4]; T3, 420 g ae/ha): 0.0%
Visual % injury (Ave) ([4]; T3, 1680 g ae/ha): 2.5%
Visual % injury (Ave) ([4]; T3, 3360 g ae/ha): 4.8%
injury range ([4]; T3, all concentrations of glyphosate tested): less than 20%
Visual % injury (Ave) ([5]; T1 study, 105 g ae/ha): 40.0%
Visual % injury (Ave) ([5]; T1 study, 420 g ae/ha): 30.0%
Visual % injury (Ave) ([5]; T1 study, 1680 g ae/ha): 55.0%
Visual % injury (Ave) ([5]; T1 study, 3360 g ae/ha): 57.5%
Visual % injury (Ave) ([5]; T2 study, 420 g ae/ha): 40.0%
Visual % injury (Ave) ([5]; T2 study, 840 g ae/ha): 47.5%
Visual % injury (Ave) ([5]; T2 study, 1680 g ae/ha): 41.3%
Visual % injury (Ave) ([5]; T2 study, 3360 g ae/ha): 35.0%
Visual % injury (Ave) ([5]; T3 study, 420 g ae/ha): 42.5%
Visual % injury (Ave) ([5]; T3 study, 840 g ae/ha): 40.0%
Visual % injury (Ave) ([5]; T3 study, 1680 g ae/ha): 47.5%
Visual % injury (Ave) ([5]; T3 study, 3360 g ae/ha): 77.5%
